In patent US6998503B2, “Crystalline solid form of (2S,5Z)-2-amino-7-(ethanimidoylamino)-2-methylhept-5-enoic acid” (Pharmacia Corporation, priority 2002, dated 2006):
Where “and” joins values, the source holds several entries; their conditions need not be identical. Equal values may be shown once. Values belong to the molecule of their own block, whether it stands above or below them.

Key:
Assay type in all cases: physicochemical
[1] = Solubility of the amorphate in solvents
[2] = Analysis of amorphous material (hygroscopicity note at elemental analysis); settings: observed at elemental analysis
[3] = Moisture sorption by DVS moisture balance; settings: for Desorption / Sorption (moisture gain) / Hysteresis Cycle 1: 25° C.
Source text: The crystalline 2-amino-7-(ethanimidoylamino)-2-methylhept-5-enoic acid 1.5 HCl is nonhygroscopic at and below 70% relative humidity. […] At 80% R.H. the gain was 18.5%, and at 90% R.H. the gain was 76.8%. The instrument cycled back to low relative humidity and the sample was removed then examined by polarized light microscopy. The sample was fully crystalline after removal from the moisture balance, but the crystallite size had increased. […] This salt form, 1.5 HCl has no solvation.

- solubility ([1]; dry solvents: acetone, MEK, methyl isobutyl ketone, THF, ethyl acetate, chloroform, methylene chloride, hexanes, cyclohexane, di-isopropyl ether, acetonitrile, toluene): less than one
- solubility ([1]; in isopropanol and solvents containing water: 10% water in THF, water saturated ethyl acetate, 10% water in acetonitrile, higher alcohols with water): soluble
- solubility ([1]; in water, methanol and ethanol): freely soluble
SMILES: CC(=N)NC/C=C\CCC(C)(N)C(=O)O (stereo in doubt) [(2S,5Z)-2-amino-7-(ethanimidoylamino)-2-methylhept-5-enoic acid]
- hygroscopicity [2]: (Note: Material appears to be hygroscopic - elemental

- Desorption ([3]; target RH 0.0%): 13.02%
- Sorption (moisture gain) ([3]; target RH 0.0%): 0.00%
- Sorption (moisture gain) ([3]; target RH 10.0%): 0.10%
- Desorption ([3]; target RH 20.0%): 18.93%
- Hysteresis Cycle 1 ([3]; target RH 20.0%): 18.77%
- Sorption (moisture gain) ([3]; target RH 20.0%): 0.16%
- Sorption (moisture gain) ([3]; target RH 30.0%): 0.21%
- Desorption ([3]; target RH 40.0%): 22.72%
- Hysteresis Cycle 1 ([3]; target RH 40.0%): 22.46%
- Sorption (moisture gain) ([3]; target RH 40.0%): 0.26%
- Sorption (moisture gain) ([3]; target RH 50.0%): 0.28%
- Desorption ([3]; target RH 60.0%): 33.44%
- Hysteresis Cycle 1 ([3]; target RH 60.0%): 33.16%
- Sorption (moisture gain) ([3]; target RH 60.0%): 0.27%
- Sorption (moisture gain) ([3]; target RH 70.0%): 0.91%
- Desorption ([3]; target RH 80.0%): 67.59%
- Hysteresis Cycle 1 ([3]; target RH 80.0%): 49.10%
- Sorption (moisture gain) ([3]; target RH 80.0%, HCl): 18.5% and 18.48%
- Sorption (moisture gain) ([3]; target RH 85.0%): 46.91%
- Desorption ([3]; target RH 90.0%): 76.82%
- Sorption (moisture gain) ([3]; target RH 90.0%, HCl): 76.8% and 76.82%
- hygroscopicity ([3]; at and below 70% relative humidity): nonhygroscopic
SMILES: CC(=N)NC/C=C\CC[C@](C)(N)C(=O)O.CC(=N)NC/C=C\CC[C@](C)(N)C(=O)O.Cl.Cl.Cl [(2S,5Z)-2-amino-7-(ethanimidoylamino)-2-methylhept-5-enoic acid 1.5 HCl]
